For seven molecules, MIC results are on record in US7211417B2, “Antibiotic P175-A and semisynthetic derivatives thereof” (priority 2003, dated 2007).

The term MIC denotes the lowest concentration found to suppress growth.

In brackets after ≈: the same amount, converted by molar mass. Where two headings read alike, the source gives them in different places. Where only a bound is given, the exact number is not on record here.

What all share (assay type): cell-based
In one assay the test system is Escherichia coli (imp). As to the kind of experiment: MIC by broth dilution, Escherichia coli (imp). On the procedure:
(§1) The minimal inhibitory concentration (MIC), the lowest concentration of the antibiotic which inhibits growth of the test organism, is determined by the broth dilution method using Muller-Hinton II […] (Baltimore Biological Laboratories) following the recommendations of the National Committee for Clinical Laboratory Standards [Methods for dilution antimicrobial susceptibility tests for bacteria that grow aerobically. Approved standard M7-A2. National Committee for Clinical Laboratory Standards, Villanova, Pa.].
(§2) An inoculum level of 5×10^5 CFU/ml, and a range of antibiotic concentrations (64–0.06 μg/ml) is used. The MIC is determined after the microtiter plates are incubated for 18 hours at 35° C. in an ambient air incubator. The test organisms comprise a spectrum of the Gram-positive bacteria Staphylococcus aureus, Streptococcus pneumoniae, and Enterococcus sp., the Gram-negative bacteria Escherichia coli, and the yeast Candida albicans. These organisms include recent clinical isolates that are resistant to methicillin and vancomycin.
Background: Broth dilution looks for growth in wells or tubes with falling amounts of substance.

The test system of assay [1] is Streptococcus pneumoniae GC 1894. Put plainly: MIC by broth dilution, Streptococcus pneumoniae GC 1894. How it is done: as §1, §2
In a further assay the test system is Enterococcus faecalis. Put plainly: MIC by broth dilution, Enterococcus faecalis. How it is done: as §1, §2
The subject of a further assay is Staphylococcus aureus. Put plainly: MIC by broth dilution, Staphylococcus aureus. How it is done: as §1, §2
The test system of another assay is Bacillus subtilis. As to the kind of experiment: MIC by broth dilution, Bacillus subtilis.
Another assay relates to Candida albicans. Put plainly: MIC by broth dilution, Candida albicans. How it is done: as §1, §2
A further assay concerns Escherichia coli. Put plainly: MIC by broth dilution, Escherichia coli. How it is done: as §1, §2
Where [2] appears, read: Streptococcus pneumoniae, GC1894, Streptococcus pneumoniae GC 1894* (5% LHB), read-out: MIC.
Setting [3] is: Streptococcus pneumoniae, GC1894, Streptococcus pneumoniae GC 1894+ (THY), read-out: MIC.
[4] abbreviates: 2 strains, including a vancomycin-resistant strain (VRE), 18 hours at 35° C., read-out: MIC.
[5] abbreviates: 3 strains, including a methicillin-resistant strain (MRSA), 18 hours at 35° C., read-out: MIC.

`COc1c2ccc3c(=O)c4cc(C)n(CC(=O)N5CC(C(=O)O)NC(=O)C5C)c(=O)c4c(=O)c3c2c(O)c2c(=O)c3cccc(O)c3c(=O)c12` (centres unmarked) [Example 3, P175-A]: the MIC is 8 µg/mL (≈ 11.8 µM) against Escherichia coli (imp); 16 µg/mL (≈ 23.5 µM) in assay [1] (setting [2]); 8 µg/mL (≈ 11.8 µM) in assay [1] (setting [3]); less than 0.06 µg/mL in the assay with Enterococcus faecalis (setting [4]); 0.06 to 0.25 µg/mL (≈ 0.0883 to 0.368 µM) in the assay on Staphylococcus aureus (setting [5]); 0.12 µg/mL (≈ 0.177 µM) with Bacillus subtilis (read-out: MIC). Moreover, the MIC in the assay with Candida albicans (read-out: MIC) and with Escherichia coli (read-out: MIC) was more than 64 µg/mL each time.
For `COC(=O)C1CN(C(=O)Cn2c(C)cc3c(=O)c4ccc5c(OC)c6c(=O)c7c(O)cccc7c(=O)c6c(O)c5c4c(=O)c3c2=O)C(C)C(=O)N1` (centres unmarked) [Example 4, P175-A methyl ester], the MIC was 4 µg/mL (≈ 5.77 µM) against Escherichia coli (imp); 1 µg/mL (≈ 1.44 µM) in assay [1] (setting [2]); 2 µg/mL (≈ 2.88 µM) in assay [1] (setting [3]); less than 0.06 µg/mL in the assay with Enterococcus faecalis (setting [4]); 0.06 to 0.12 µg/mL (≈ 0.0865 to 0.173 µM) in the assay on Staphylococcus aureus (setting [5]); 0.12 µg/mL (≈ 0.173 µM) with Bacillus subtilis (read-out: MIC). Further, the minimal inhibitory concentration (MIC) with Candida albicans (read-out: MIC) and with Escherichia coli (read-out: MIC) was more than 64 µg/mL each time.
In the case of `CCOC(=O)C1CN(C(=O)Cn2c(C)cc3c(=O)c4ccc5c(OC)c6c(=O)c7c(O)cccc7c(=O)c6c(O)c5c4c(=O)c3c2=O)C(C)C(=O)N1` (centres unmarked) [Example 5, P175-A ethyl ester], the MIC in the assay with Escherichia coli (imp) was 16 µg/mL (≈ 22.6 µM); in assay [1] (setting [2]), 0.5 µg/mL (≈ 0.707 µM); in assay [1] (setting [3]), 1 µg/mL (≈ 1.41 µM); in the assay on Enterococcus faecalis (setting [4]), 0.25 to 0.5 µg/mL (≈ 0.353 to 0.707 µM); in the assay on Staphylococcus aureus (setting [5]) it was 0.06 to 0.12 µg/mL (≈ 0.0848 to 0.17 µM); in the assay with Bacillus subtilis (read-out: MIC), 0.25 µg/mL (≈ 0.353 µM). The MIC in the assay with Candida albicans (read-out: MIC) and in the assay on Escherichia coli (read-out: MIC) was more than 64 µg/mL each time.
On to `COc1c2ccc3c(=O)c4cc(C)n(CC(=O)N5CC(C(=O)OC(C)C)NC(=O)C5C)c(=O)c4c(=O)c3c2c(O)c2c(=O)c3cccc(O)c3c(=O)c12` (centres unmarked) [Example 6, P175-A isopropyl ester], for which the MIC was 16 µg/mL (≈ 22.2 µM) against Escherichia coli (imp); 2 µg/mL (≈ 2.77 µM) in assay [1] (setting [2]); 4 µg/mL (≈ 5.54 µM) in assay [1] (setting [3]); 4 µg/mL (≈ 5.54 µM) in the assay on Enterococcus faecalis (setting [4]); 1 to 4 µg/mL (≈ 1.39 to 5.54 µM) with Staphylococcus aureus (setting [5]); 8 µg/mL (≈ 11.1 µM) in the assay with Bacillus subtilis (read-out: MIC). The minimal inhibitory concentration (MIC) in the assay with Candida albicans (read-out: MIC) and in the assay on Escherichia coli (read-out: MIC) was more than 64 µg/mL each time.
On to `COc1c2ccc3c(=O)c4cc(C)n(CC(=O)N5CC(C(=O)OCc6ccccc6)NC(=O)C5C)c(=O)c4c(=O)c3c2c(O)c2c(=O)c3cccc(O)c3c(=O)c12` (centres unmarked) [Example 7, P175-A benzyl ester], for which the MIC is 32 µg/mL (≈ 41.6 µM) against Escherichia coli (imp); 0.5 µg/mL (≈ 0.65 µM) in assay [1] (setting [2]); 0.25 µg/mL (≈ 0.325 µM) in assay [1] (setting [3]); 2 to 8 µg/mL (≈ 2.6 to 10.4 µM) in the assay on Enterococcus faecalis (setting [4]); 0.12 to 2 µg/mL (≈ 0.156 to 2.6 µM) in the assay on Staphylococcus aureus (setting [5]); 4 µg/mL (≈ 5.2 µM) in the assay with Bacillus subtilis (read-out: MIC). Besides, the MIC in the assay on Candida albicans (read-out: MIC) and in the assay with Escherichia coli (read-out: MIC) was more than 64 µg/mL throughout.
As to `COC(=O)COC(=O)C1CN(C(=O)Cn2c(C)cc3c(=O)c4ccc5c(OC)c6c(=O)c7c(O)cccc7c(=O)c6c(O)c5c4c(=O)c3c2=O)C(C)C(=O)N1` (centres unmarked) [Example 8A], the MIC is 8 µg/mL (≈ 10.6 µM) against Escherichia coli (imp); 64 µg/mL (≈ 85.1 µM) in assay [1] (Streptococcus pneumoniae GC 1894+ (THY)); 64 µg/mL (≈ 85.1 µM) in assay [1] (Streptococcus pneumoniae, GC1894); 0.5 to 1 µg/mL (≈ 0.665 to 1.33 µM) in the assay with Enterococcus faecalis (VRE, 18 h); 0.5 to 2 µg/mL (≈ 0.665 to 2.66 µM) against Staphylococcus aureus (MRSA, 18 h); 1 µg/mL (≈ 1.33 µM) with Bacillus subtilis. The MIC in the assay on Candida albicans and with Escherichia coli was more than 64 µg/mL each time.
As to `COc1c2ccc3c(=O)c4cc(C)n(CC(=O)N5CC(C(=O)O)NC(=O)C5C)c(=O)c4c(=O)c3c2c(O)c2c(=O)c3cccc(OCC(=O)O)c3c(=O)c12` (centres unmarked) [Example 9D], the MIC is more than 64 µg/mL against Escherichia coli (imp); more than 64 µg/mL in assay [1] (setting [2]); 64 µg/mL (≈ 86.8 µM) in assay [1] (setting [3]); 8 µg/mL (≈ 10.8 µM) with Enterococcus faecalis (setting [4]); 8 to 16 µg/mL (≈ 10.8 to 21.7 µM) with Staphylococcus aureus (setting [5]); 8 µg/mL (≈ 10.8 µM) in the assay with Bacillus subtilis (read-out: MIC). Also, the MIC in the assay on Candida albicans (read-out: MIC) and in the assay on Escherichia coli (read-out: MIC) was more than 64 µg/mL in each case.
